Test results taken from ChEMBL document CHEMBL4406865, “Design, synthesis and biological evaluation of novel semicarbazone-selenochroman-4-ones hybrids as potent antifungal agents” (2019).
Values after ≈ are worked out from the molar mass of the structure shown.

Key:
Assay type in all cases: functional
Candida albicans [1] = test: Antifungal activity against fluconazole-resistant Candida albicans CaR incubated for 24 hrs by CLSI protocol based microbroth dilution method
Candida albicans [2] = test: Antifungal activity against Candida albicans CPCC400616 measured at 24 hrs by CLSI protocol based microbroth dilution method; details: CPCC400616, 24 h
Cryptococcus neoformans = test: Antifungal activity against Cryptococcus neoformans CGMCC2.3161 measured at 72 hrs by CLSI protocol based microbroth dilution method; details: CGMCC2.3161, 72 h
Candida albicans [3] = test: Antifungal activity against fluconazole-resistant Candida albicans isolate 17 incubated for 24 hrs by CLSI protocol based microbroth dilution method; details: isolate 17, 24 h
Candida albicans [4] = test: Antifungal activity against fluconazole-resistant Candida albicans isolate 100 incubated for 24 hrs by CLSI protocol based microbroth dilution method; details: isolate 100, 24 h
Aspergillus fumigatus = test: Antifungal activity against Aspergillus fumigatus CGMCC 3.7795 measured at 72 hrs by CLSI protocol based microbroth dilution method; details: CGMCC 3.7795, 72 h
[Candida] zeylanoides = Antifungal activity against Candida zeylanoides CGMCC2.3739 measured at 24 hrs by CLSI protocol based microbroth dilution method; details: Dujonia zeylanoides, CGMCC2.3739, 24 h
Candida albicans [5] = test: Antifungal activity against fluconazole-resistant Candida albicans isolate 103 incubated for 24 hrs by CLSI protocol based microbroth dilution method; details: isolate 103, 24 h
Candida albicans [6] = test: Antifungal activity against Candida albicans SC5314 incubated for 24 hrs by CLSI protocol based microbroth dilution method; details: SC5314, 24 h

| Structure (SMILES) | MIC90 (Candida albicans [1]) [µg/mL] | MIC90 (Candida albicans [2]) [µg/mL] | MIC90 (Cryptococcus neoformans) [µg/mL] | MIC90 (Candida albicans [3]) [µg/mL] | MIC90 (Candida albicans [4]) [µg/mL] | MIC90 (Aspergillus fumigatus) [µg/mL] | MIC90 ([Candida] zeylanoides) [µg/mL] | MIC90 (Candida albicans [5]) [µg/mL] | MIC90 (Candida albicans [6]) [µg/mL] |
| --- | --- | --- | --- | --- | --- | --- | --- | --- | --- |
| NNC(=S)N/N=C1\CC[Se]c2ccccc21 | > 128 | 8 (≈ 26.7 µM) | 0.5 (≈ 1.67 µM) | 64 (≈ 214 µM) | > 128 | > 128 | 1 (≈ 3.34 µM) | > 128 | 16 (≈ 53.5 µM) |
| Cc1ccc(C)c(NC(=S)N/N=C2\CC[Se]c3ccc(F)cc32)c1 |  | 8 (≈ 19.7 µM) | 16 (≈ 39.4 µM) |  |  | > 128 | > 128 |  | 32 (≈ 78.7 µM) |
| Cc1ccc(C)c(NC(=O)N/N=C2\CC[Se]c3ccc(C)cc32)c1 |  | 64 (≈ 166 µM) | 64 (≈ 166 µM) |  |  | > 128 | > 128 |  | 64 (≈ 166 µM) |
| CCc1ccccc1NC(=O)N/N=C1\CC[Se]c2ccc(C)cc21 |  | 64 (≈ 166 µM) | 4 (≈ 10.4 µM) |  |  | > 128 | 16 (≈ 41.4 µM) |  | 64 (≈ 166 µM) |
| CCOc1ccc(NC(=O)N/N=C2\CC[Se]c3ccc(C)cc32)cc1 |  | 64 (≈ 159 µM) | 32 (≈ 79.5 µM) |  |  | > 128 | > 128 |  | 8 (≈ 19.9 µM) |
| Cc1ccc2c(c1)/C(=N/NC(=O)Nc1ccccc1)CC[Se]2 |  | 64 (≈ 179 µM) | 8 (≈ 22.3 µM) |  |  | > 128 | 16 (≈ 44.7 µM) |  | 4 (≈ 11.2 µM) |
| COc1ccc(OC)c(NC(=S)N/N=C2\CC[Se]c3ccc(F)cc32)c1 | 4 (≈ 9.12 µM) | 8 (≈ 18.2 µM) | 4 (≈ 9.12 µM) | 2 (≈ 4.56 µM) | 2 (≈ 4.56 µM) | 64 (≈ 146 µM) | 4 (≈ 9.12 µM) | 4 (≈ 9.12 µM) | 2 (≈ 4.56 µM) |
| O=C1CC[Se]c2ccc(F)cc21 |  | 16 (≈ 69.8 µM) | > 128 |  |  | > 128 | > 128 |  | 4 (≈ 17.5 µM) |
| Cc1ccc(NC(=S)N/N=C2\CC[Se]c3ccc(C)cc32)cc1 |  | 64 (≈ 165 µM) | 32 (≈ 82.4 µM) |  |  | > 128 | 8 (≈ 20.6 µM) |  | 16 (≈ 41.2 µM) |
| NNC(=S)NN |  | 32 (≈ 301 µM) | 64 (≈ 603 µM) |  |  | > 128 | 64 (≈ 603 µM) |  | 64 (≈ 603 µM) |
| O=C1CC[Se]c2ccccc21 |  | 64 (≈ 303 µM) | 8 (≈ 37.9 µM) |  |  | > 128 | > 128 |  | 4 (≈ 18.9 µM) |
| COc1cccc(NC(=S)N/N=C2\CC[Se]c3ccc(C)cc32)c1 |  | 64 (≈ 158 µM) | 32 (≈ 79.1 µM) |  |  | > 128 | > 128 |  | 64 (≈ 158 µM) |
| Fc1ccc2c(c1)/C(=N/NC(=S)Nc1ccccc1)CC[Se]2 | 2 (≈ 5.29 µM) | 0.25 (≈ 0.661 µM) | 2 (≈ 5.29 µM) | 2 (≈ 5.29 µM) | 0.5 (≈ 1.32 µM) | > 128 | 8 (≈ 21.1 µM) | 0.5 (≈ 1.32 µM) | 2 (≈ 5.29 µM) |
| CCc1ccccc1NC(=O)N/N=C1\CC[Se]c2ccc(F)cc21 |  | 8 (≈ 20.5 µM) | > 128 |  |  | > 128 | > 128 |  | 8 (≈ 20.5 µM) |
| NNC(=S)Nc1ccccc1 |  | 64 (≈ 383 µM) | 64 (≈ 383 µM) |  |  | > 128 | > 128 |  | > 128 |
| Cc1ccc2c(c1)/C(=N/NC(=O)Nc1ccccc1Cl)CC[Se]2 |  | 64 (≈ 163 µM) | 64 (≈ 163 µM) |  |  | > 128 | > 128 |  | 32 (≈ 81.5 µM) |
| COc1ccc(OC)c(NC(=S)N/N=C2\CC[Se]c3ccccc32)c1 |  | 8 (≈ 19 µM) | 2 (≈ 4.76 µM) |  |  | > 128 | 32 (≈ 76.1 µM) |  | 4 (≈ 9.51 µM) |
| CCc1ccccc1NC(=O)N/N=C1\CC[Se]c2ccccc21 |  | > 128 | > 128 |  |  | > 128 | > 128 |  | > 128 |
| Cc1ccc2c(c1)/C(=N/NC(=O)Nc1cccc(Br)c1)CC[Se]2 |  | > 128 | > 128 |  |  | > 128 | > 128 |  | > 128 |
| COc1cccc(NC(=S)N/N=C2\CC[Se]c3ccccc32)c1 |  | 16 (≈ 41 µM) | 4 (≈ 10.2 µM) |  |  | > 128 | 2 (≈ 5.12 µM) |  | 16 (≈ 41 µM) |
